Measured values reported in patent US4348410A, “Cyclohexane carboxylic acid derivatives” (Nippon Chemiphar Co., Ltd., priority 1979, dated 1982).

Legend:
Type in all cases: biochemical
Settings in all cases: 37° C., 10 minutes; concentration not given
urokinase = urokinase (Homo sapiens, UniProt P00749); test: Inhibitory effects on urokinase (hydrolysis of N-acetylglycyl lysine methyl ester)
Description: The compounds of the formula (I) have excellent inhibitory effects on protease. The inhibitory effects were determined by the following methods: Inhibitory effects of the compounds on urokinase were determined according to the method described by A. J. Joeson et al (Throm. […]. 21, 259-272 (1969)). In particular, inhibitory effects of the compounds on hydrolysis of N-acetylglycyl lysine methyl ester by urokinase were determined (incubated at 37° C. for 10 minutes).

trypsin = target: T1, trypsin (Bos taurus, UniProt P00760); test: Inhibitory effects on trypsin (hydrolysis of p-tosylarginine methyl ester)
T1 sequence (P00760 24-246): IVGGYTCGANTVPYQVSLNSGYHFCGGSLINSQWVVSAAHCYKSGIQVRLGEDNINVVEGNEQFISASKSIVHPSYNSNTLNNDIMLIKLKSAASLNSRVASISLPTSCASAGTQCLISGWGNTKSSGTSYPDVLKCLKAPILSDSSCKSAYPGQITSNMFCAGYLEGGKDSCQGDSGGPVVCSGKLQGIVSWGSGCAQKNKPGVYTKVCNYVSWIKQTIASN
Description: In particular, inhibitory effects of the compounds on hydrolysis of p-tosylarginine methyl ester by trypsin were examined (incubated at 37° C. for 10 minutes).

thrombin = thrombin (Bos taurus, UniProt P00735); test: Inhibitory effects on thrombin (hydrolysis of p-tosylarginine methyl ester)
Description: The compounds of the formula (I) have excellent inhibitory effects on protease. The inhibitory effects were determined by the following methods:
Inhibitory effects of the compounds on thrombin were determined according to the method described by M. Muramatsu et al (The Journal of Biochemistry, Volume 65 (1), 17 (1969)). In particular, inhibitory effects of the compounds on hydrolysis of p-tosylarginine methyl ester by thrombin were examined (incubated at 37° C. for 10 minutes).

N=C(N)NC[C@H]1CC[C@H](C(=O)Oc2ccccc2C(=O)OCc2ccccc2)CC1 [Compound 1]
Inhibition (%) Urokinase (urokinase): 32% | Inhibition (%) Trypsin (trypsin): 79% | Inhibition (%) Thrombin (thrombin): 37%
